According to ChEMBL document CHEMBL1250440, “Development of chemical probes: toward the mode of action of a methylene-linked di(aryl acetate) E1” (Bioorg Med Chem, 2010):
Calls of active or inactive are those of the source. The calls are words filed in the database; no cut-off is given here.

target: T1, RAC-alpha serine/threonine-protein kinase (Homo sapiens, UniProt P31749); assay: Inhibition of PKB/Akt activation in human overnight starved MCF7 cells assessed as phosphorylated Akt at Ser473 level at 50 ug/ml after 1 hr followed by treated with 1 ug/mL of insulin for 15 mins by Western blotting; type: cell-based
T1 sequence (P31749 whole entry): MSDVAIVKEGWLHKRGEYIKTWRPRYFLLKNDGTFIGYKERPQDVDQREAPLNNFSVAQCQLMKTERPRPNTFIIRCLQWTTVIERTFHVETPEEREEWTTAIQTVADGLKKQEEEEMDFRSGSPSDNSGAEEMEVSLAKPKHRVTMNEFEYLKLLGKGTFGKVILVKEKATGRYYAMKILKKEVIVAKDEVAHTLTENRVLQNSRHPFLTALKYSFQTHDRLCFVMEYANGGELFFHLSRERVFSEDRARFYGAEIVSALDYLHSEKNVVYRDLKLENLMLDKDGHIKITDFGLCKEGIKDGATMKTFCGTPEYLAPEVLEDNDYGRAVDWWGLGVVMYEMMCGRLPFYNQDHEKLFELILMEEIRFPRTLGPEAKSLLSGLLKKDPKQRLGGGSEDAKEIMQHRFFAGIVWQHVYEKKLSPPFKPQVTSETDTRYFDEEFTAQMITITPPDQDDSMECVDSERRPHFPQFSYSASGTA

IC50 [µM]	Structure (SMILES)
25	CCc1ccc(OC(C)=O)c(Cc2cc(CCCl)ccc2OC(C)=O)c1

target: T1, RAC-alpha serine/threonine-protein kinase; assay: Inhibition of PKB activation in human overnight starved MCF7 cells assessed as phosphorylated Akt at Ser473 level at 50 ug/ml after 1 hr followed by treated with 1 ug/mL of insulin for 15 mins by Western blotting

Structure (SMILES)	inhibition of PKB activation (active/not active)
CCc1ccc(OC(C)=O)c(Cc2cc(CC)ccc2OC(C)=O)c1	Active
CCc1ccc(OC(C)=O)c(Cc2cc(CCCl)ccc2OC(C)=O)c1	Active
CC(=O)Oc1ccccc1Cc1ccccc1OC(C)=O	inactive

More lines, now with the values ahead:

inhibition of PKB activation (active/not active)	Structure (SMILES)
inactive	CCc1ccc(OC(C)=O)c(Cc2ccccc2OC(C)=O)c1
Active	CCc1ccc(Cc2cc(CCCl)ccc2OC(C)=O)c(OC(C)=O)c1
Active	CC(=O)Oc1ccccc1Cc1cc(CCCl)ccc1OC(C)=O
